From patent US9334246B2, “Substituted triazines for malaria treatment and chemoprophylaxis” (The United States of America, as represented by the …, priority 2013, dated 2016)

Key:
Format in all cases: cell-based, Plasmodium falciparum
P. falciparum W2 = experiment: Malaria SYBR Green Fluorescence Assay, W2 strain; conditions: for W2: SYBR Green Assay
P. falciparum C235 = experiment: Malaria SYBR Green Fluorescence Assay, C235 strain; conditions: for C235: SYBR Green Assay
P. falciparum D6 = experiment: Malaria SYBR Green Fluorescence Assay, D6 strain; conditions: for D6: SYBR Green Assay

Compound | W2 (P. falciparum W2) [ng/mL] | C235 (P. falciparum C235) [ng/mL] | D6 (P. falciparum D6) [ng/mL] | W2 (SYBR Green Assay IC50) (P. falciparum W2) [µg/mL] | C235 (SYBR Green Assay IC50) (P. falciparum C235) [µg/mL] | D6 (SYBR Green Assay IC50) (P. falciparum D6) [µg/mL]
CS(=O)(=O)c1ccc(-c2nc(NCCc3cccnc3)nc(C(Cl)(Cl)Cl)n2)cc1 [Cmpd 179] | 201 | 680 | 471 | – | – | –
CS(=O)(=O)c1ccc(-c2nc(NCCNCCO)nc(C(Cl)(Cl)Cl)n2)cc1 [Cmpd 98] | 366 | 554 | 448 | – | – | –
COc1ncccc1Nc1nc(N2CCCN(C)CC2)nc(C(Cl)(Cl)Cl)n1 [Cmpd 379] | – | – | – | 0.092 | 0.159 | 0.066
COc1ccc(-c2nc(NCCc3ccccn3)nc(C(Cl)(Cl)Cl)n2)cc1 [Cmpd 185] | 63 | 244 | 185 | – | – | –
NC1CCN(CC1)C1═NC(═NC(═N1)C(Cl)(Cl)Cl)C1═CC═C(Cl)C(Cl)═C1 [Compound 622] | – | – | – | 0.036 | 0.059 | 0.074
ClC(Cl)(Cl)c1nc(NCCN2CCCC2)nc(-c2ccccc2)n1 [Cmpd 405] | – | – | – | 0.016 | 0.045 | 0.027
OCCN1CCCN(c2nc(-c3cccc(C(F)(F)F)c3)nc(C(Cl)(Cl)Cl)n2)CC1 [Cmpd 456] | – | – | – | 0.091 | 0.136 | 0.207
CS(=O)(=O)c1ccc(-c2nc(N3CCCN(CCO)CC3)nc(C(Cl)(Cl)Cl)n2)cc1 [Cmpd 132] | 103 | 200 | 64 | – | – | –
CSC1═CC═C(C═C1)C1═NC(═NC(═N1)C(Cl)(Cl)Cl)N1CCC(N)CC1 [Compound 626] | – | – | – | 0.007 | 0.011 | 0.018
Clc1ccc(cc1)c2nc(nc(n2)C(Cl)(Cl)Cl)N3CC4CC3CN4 [Compound 717] | 163 | 264 | 259 | – | – | –
CCN1CCCC(Nc2nc(Cc3ccccc3OC)nc(C(Cl)(Cl)Cl)n2)C1 (stereo not drawn) [Cmpd 94] | 173 | 456 | 396 | – | – | –
CC(=O)Nc1cccc(Nc2nc(C(Cl)(Cl)Cl)nc(C(Cl)(Cl)Cl)n2)c1 [Compound 727, CC(═O)Nc1cccc(Nc2nc(nc(n2)C(Cl)(Cl)Cl)C(Cl)(Cl)Cl)c1] | 131 | 319 | 256 | – | – | –
CN1CCN(c2nc(-c3ccc(F)cc3)nc(C(Cl)(Cl)Cl)n2)CC1 [Cmpd 390] | – | – | – | 0.143 | 0.567 | 0.495
CC(=O)Nc1cccc(Nc2nc(NCCC3CCCN3C)nc(C(Cl)(Cl)Cl)n2)c1 (stereo not drawn) [Cmpd 92] | 106 | 164 | 122 | – | – | –
CCN(CC)CCNc1nc(-c2ccccc2OC)nc(C(Cl)(Cl)Cl)n1 [Cmpd 107] | 95 | 158 | 212 | – | – | –
COc1cc(OC)cc(-c2nc(NCC3CCN(C(C)C)CC3)nc(C(Cl)(Cl)Cl)n2)c1 [Cmpd 502] | – | – | – | 0.028 | 0.052 | 0.127
COc1ccccc1-c1nc(N2CCCNCC2)nc(C(Cl)(Cl)Cl)n1 [Cmpd 218] | 38 | 73 | 104 | – | – | –
CSc1ccc(-c2nc(NC3CC(C)(C)NC(C)(C)C3)nc(C(Cl)(Cl)Cl)n2)cc1 [Cmpd 323] | 17 | 51 | 20 | – | – | –
COc1ccc(Nc2nc(N3CCN(C)CC3)nc(C(Cl)(Cl)Cl)n2)cn1 [Cmpd 345] | 199 | 1100 | 267 | – | – | –
Clc1ccc(-c2nc(NCc3cccnc3)nc(C(Cl)(Cl)Cl)n2)cc1 [Cmpd 142] | 112 | 469 | 306 | – | – | –
Cc1ccc(-c2nc(N3CCCN(CCO)CC3)nc(C(Cl)(Cl)Cl)n2)cc1 [Cmpd 453] | – | – | – | 0.043 | 0.112 | 0.173
NC1CCN(c2nc(-c3ccc(Cl)cc3)nc(C(Cl)(Cl)Cl)n2)CC1 [Compound 630, NC1CCN(CC1)C1═NC(═NC(═N1)C(Cl)(Cl)Cl)C1═CC═C(Cl)C═C1] | – | – | – | 0.01 | 0.013 | 0.012
CN(CC(=O)OC(C)(C)C)c1nc(-c2ccc(Cl)cc2)nc(C(Cl)(Cl)Cl)n1 [Compound 687, CN(CC(═O)OC(C)(C)C)c1nc(nc(n1)C(Cl)(Cl)Cl)c2ccc(Cl)cc2] | 501 | 501 | 501 | – | – | –
OCCN1CCCN(c2nc(-c3ccccc3)nc(C(Cl)(Cl)Cl)n2)CC1 [Cmpd 458] | – | – | – | 0.044 | 0.116 | 0.172

Compound | W2 (P. falciparum W2) [ng/mL] | C235 (P. falciparum C235) [ng/mL] | D6 (P. falciparum D6) [ng/mL] | W2 (SYBR Green Assay IC50) (P. falciparum W2) [µg/mL] | C235 (SYBR Green Assay IC50) (P. falciparum C235) [µg/mL] | D6 (SYBR Green Assay IC50) (P. falciparum D6) [µg/mL]
CN(CCc1ccccn1)c1nc(-c2cc(Cl)cc(Cl)c2)nc(C(Cl)(Cl)Cl)n1 [Cmpd 474] | – | – | – | 0.208 | 0.527 | 0.065
CN1CCCN(c2nc(-c3ccccc3[N+](=O)[O-])nc(C(Cl)(Cl)Cl)n2)CC1 [Cmpd 548] | – | – | – | 0.053 | 0.07 | 0.069
COc1cc(OC)cc(-c2nc(NCC3(N)CCOCC3)nc(C(Cl)(Cl)Cl)n2)c1 [Cmpd 529] | – | – | – | 0.055 | 0.055 | 0.059
ClC(Cl)(Cl)c1ccc(cc1)c2nc(NCc3ccncc3)nc(n2)C(Cl)(Cl)Cl [Compound 652] | – | – | – | 0.301 | 0.876 | 0.385
OCCN1CCN(c2nc(-c3ccc(-c4ccccc4)cc3)nc(C(Cl)(Cl)Cl)n2)CC1 [Cmpd 308] | 24 | 126 | 52 | – | – | –
CN1CCC(CNc2nc(-c3cc(Cl)cc(Cl)c3)nc(C(Cl)(Cl)Cl)n2)CC1 [Cmpd 514] | – | – | – | 0.026 | 0.028 | 0.079
COc1cc(OC)cc(-c2nc(NCCCN3CCCC3)nc(C(Cl)(Cl)Cl)n2)c1 [Cmpd 477] | – | – | – | 0.023 | 0.041 | 0.077
NC1CCN(CC1)C1═NC(═NC(═N1)C1═CC2═C(C═CC═C2)C═C1)C(Cl)(Cl)Cl [Compound 628] | – | – | – | 0.017 | 0.02 | 0.042
COc1cccc(-c2nc(NCCC3CCCN3C)nc(C(Cl)(Cl)Cl)n2)c1 (stereo not drawn) [Cmpd 236] | 50 | 60 | 52 | – | – | –
COc1ccccc1-c1nc(NCCc2ccncc2)nc(C(Cl)(Cl)Cl)n1 [Cmpd 146] | 246 | 804 | 539 | – | – | –
ClC(Cl)(Cl)c1nc(Nc2ccncc2)nc(-c2ccc(N3CCCC3)cc2)n1 [Compound 744, ClC(Cl)(Cl)C1═NC(NC2═CC═NC═C2)═NC(═N1)C1═CC═C(C═C1)N1CCCC1] | 188 | 290 | 190 | – | – | –
CN(C)CCCNc1nc(-c2ccccc2)nc(C(Cl)(Cl)Cl)n1 [Cmpd 443] | – | – | – | 0.043 | 0.161 | 0.145
CCN1CCCC(Nc2nc(-c3ccc(OC)c4ccccc34)nc(C(Cl)(Cl)Cl)n2)C1 (stereo not drawn) [Cmpd 280] | 76 | 193 | 138 | – | – | –
COc1ccc(-c2nc(N3CCCNCC3)nc(C(Cl)(Cl)Cl)n2)cc1 [Cmpd 101] | 117 | 158 | 182 | – | – | –
CCN1CCCC(Nc2nc(-c3ccc(SC)cc3)nc(C(Cl)(Cl)Cl)n2)C1 (stereo not drawn) [Cmpd 88] | 69 | 77 | 79 | – | – | –
CC1(C)CC(Nc2nc(-c3ccc(F)cc3)nc(C(Cl)(Cl)Cl)n2)CC(C)(C)N1 [Cmpd 391] | – | – | – | 0.019 | 0.046 | 0.043
Cc1ccc(-c2ccccc2-c2nc(NCc3ccncc3)nc(C(Cl)(Cl)Cl)n2)cc1 [Cmpd 299] | 148 | 311 | 195 | – | – | –
CCN1CCC(CNc2nc(-c3ccccc3[N+](=O)[O-])nc(C(Cl)(Cl)Cl)n2)CC1 [Cmpd 551] | – | – | – | 0.0356 | 0.05653 | 0.07027
COc1cc(OC)cc(-c2nc(NCC3(N)CCCC3)nc(C(Cl)(Cl)Cl)n2)c1 [Cmpd 530] | – | – | – | 0.014 | 0.013 | 0.013
Clc1ccc(-c2nc(NCc3ccccn3)nc(C(Cl)(Cl)Cl)n2)cc1 [Cmpd 141] | 237 | 652 | 556 | – | – | –
CN1CCCC1CCNc1nc(Nc2ccc(OC(F)(F)F)cc2)nc(C(Cl)(Cl)Cl)n1 (stereo not drawn) [Cmpd 295] | 10 | 23 | 10 | – | – | –
CN1CCC(Nc2nc(-c3ccc(F)cc3)nc(C(Cl)(Cl)Cl)n2)CC1 [Cmpd 385] | – | – | – | 0.039 | 0.057 | 0.028
ClC(Cl)(Cl)c1nc(NCCCN2CCCC2)nc(-c2ccc(-c3ccccc3)cc2)n1 [Cmpd 197] | 105 | 137 | 128 | – | – | –
OCCN1CCCN(c2nc(-c3ccc(Cl)c(Cl)c3)nc(C(Cl)(Cl)Cl)n2)CC1 [Cmpd 454] | – | – | – | 0.064 | 0.118 | 0.252
